Consider 13 compounds from ChEMBL document CHEMBL1144632, “The rational design of inhibitors of nitric oxide formation by inducible nitric oxide synthase” (Bioorg Med Chem Lett, 2007).

Active and inactive are the calls of the source. No cut-off for these calls is given here. Bounds are passed on as bounds.

Nitric oxide synthase, inducible, sequence (P35228 whole entry): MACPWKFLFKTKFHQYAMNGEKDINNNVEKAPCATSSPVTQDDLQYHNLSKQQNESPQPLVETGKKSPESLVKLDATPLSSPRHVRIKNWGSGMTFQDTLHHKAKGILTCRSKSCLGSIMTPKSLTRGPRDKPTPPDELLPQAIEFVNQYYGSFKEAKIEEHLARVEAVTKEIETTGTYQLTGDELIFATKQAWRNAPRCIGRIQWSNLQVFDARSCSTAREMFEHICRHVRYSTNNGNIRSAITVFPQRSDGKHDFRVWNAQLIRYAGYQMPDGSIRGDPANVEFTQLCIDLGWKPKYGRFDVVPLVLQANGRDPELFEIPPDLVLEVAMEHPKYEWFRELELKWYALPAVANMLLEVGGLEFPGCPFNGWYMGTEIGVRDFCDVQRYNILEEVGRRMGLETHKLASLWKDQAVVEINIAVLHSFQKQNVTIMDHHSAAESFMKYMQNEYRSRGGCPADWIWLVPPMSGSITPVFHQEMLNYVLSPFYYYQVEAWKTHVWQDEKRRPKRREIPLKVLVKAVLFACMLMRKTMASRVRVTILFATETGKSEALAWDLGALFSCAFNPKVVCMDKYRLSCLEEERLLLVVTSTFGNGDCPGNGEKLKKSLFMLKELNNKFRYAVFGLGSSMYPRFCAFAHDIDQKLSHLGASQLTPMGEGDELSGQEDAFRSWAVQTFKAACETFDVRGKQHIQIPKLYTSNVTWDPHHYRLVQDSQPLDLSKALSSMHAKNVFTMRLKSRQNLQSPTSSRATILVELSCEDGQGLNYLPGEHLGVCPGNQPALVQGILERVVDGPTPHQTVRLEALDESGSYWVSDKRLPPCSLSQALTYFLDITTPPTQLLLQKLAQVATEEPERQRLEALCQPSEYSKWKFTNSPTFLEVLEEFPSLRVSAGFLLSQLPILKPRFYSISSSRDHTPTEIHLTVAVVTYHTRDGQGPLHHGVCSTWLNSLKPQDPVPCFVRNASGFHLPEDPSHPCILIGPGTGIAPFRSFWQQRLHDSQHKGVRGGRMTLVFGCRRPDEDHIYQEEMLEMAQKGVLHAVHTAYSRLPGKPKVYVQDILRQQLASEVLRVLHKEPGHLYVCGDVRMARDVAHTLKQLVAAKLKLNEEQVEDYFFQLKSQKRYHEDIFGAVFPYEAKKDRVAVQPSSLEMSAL

The first assay has as its target Nitric oxide synthase, inducible (Homo sapiens, UniProt P35228). In words: Inhibition of iNOS in human A172 cells after 18 to 24 hrs. Type of assay: cell-based, A 172.
In turn, `Cc1cc(Oc2ccc3c(c2)OCO3)nc(Oc2ccc(-n3ccnc3)cc2Cl)n1` gave an IC50 of 19 nM.

Take `Cc1cc(Oc2ccc3c(c2)OCO3)nc(Oc2ccc(-n3ccnc3)cc2)n1`: 90 nM corresponded to half-maximal inhibition (IC50).

With `Cc1c(F)c(Oc2ccc(-n3ccnc3)cc2)nc(Oc2ccc3c(c2)OCO3)c1F`, the IC50 worked out at 450 nM.

With `c1cn(-c2ccc(Oc3cc(Oc4ccc5c(c4)OCO5)ncn3)cc2)cn1`, the IC50 was over 10000 nM.

`c1cn(-c2ccc(Oc3ccnc(Oc4ccc5c(c4)OCO5)n3)cc2)cn1` yielded an IC50 of 74 nM.

As to `c1cc(Oc2ccc(-n3ccnc3)cc2)nc(Oc2ccc3c(c2)OCO3)c1`, the IC50 came to 78 nM.

The compound `c1cn(-c2ccc(Oc3cc(N4CCOCC4)nc(Cc4ccc5c(c4)OCO5)n3)cc2)cn1` came in with a 50% inhibitory concentration (IC50) of 830 nM.

The compound `c1cn(-c2ccc(Oc3nccc(Oc4ccc5c(c4)OCO5)n3)cc2)cn1` returned a 50% inhibitory concentration (IC50) of 55 nM.

On to `Cc1cc(Oc2ccc3c(c2)OCO3)nc(Oc2ccc(-n3ccnc3)cc2F)n1`, for which half-maximal inhibition (IC50) was put at 92 nM.

The compound `CN(C)CCCN(C)c1cc(Oc2ccc(-n3ccnc3)cc2)nc(Cc2ccc3c(c2)OCO3)n1` yielded an IC50 of 220 nM.

The compound `Cc1cc(Oc2ccc3c(c2)OCO3)nc(Oc2ccc(-n3ccnc3)cc2C(F)(F)F)n1` returned an IC50 of 220 nM.

As for `Clc1cc(Oc2ccc(-n3ccnc3)cc2)nc(Cc2ccc3c(c2)OCO3)n1`, the IC50 was over 10000 nM.

For the compound `Cc1cnc(Oc2ccc(-n3ccnc3)cc2)nc1Oc1ccc2c(c1)OCO2`, it took 130 nM to reach half-maximal inhibition (IC50).

The target of another assay is Nitric oxide synthase 1 (Homo sapiens) (UniProt P29475). In words: Inhibition of bNOS.
Nitric oxide synthase 1 (Homo sapiens), sequence (P29475 whole entry): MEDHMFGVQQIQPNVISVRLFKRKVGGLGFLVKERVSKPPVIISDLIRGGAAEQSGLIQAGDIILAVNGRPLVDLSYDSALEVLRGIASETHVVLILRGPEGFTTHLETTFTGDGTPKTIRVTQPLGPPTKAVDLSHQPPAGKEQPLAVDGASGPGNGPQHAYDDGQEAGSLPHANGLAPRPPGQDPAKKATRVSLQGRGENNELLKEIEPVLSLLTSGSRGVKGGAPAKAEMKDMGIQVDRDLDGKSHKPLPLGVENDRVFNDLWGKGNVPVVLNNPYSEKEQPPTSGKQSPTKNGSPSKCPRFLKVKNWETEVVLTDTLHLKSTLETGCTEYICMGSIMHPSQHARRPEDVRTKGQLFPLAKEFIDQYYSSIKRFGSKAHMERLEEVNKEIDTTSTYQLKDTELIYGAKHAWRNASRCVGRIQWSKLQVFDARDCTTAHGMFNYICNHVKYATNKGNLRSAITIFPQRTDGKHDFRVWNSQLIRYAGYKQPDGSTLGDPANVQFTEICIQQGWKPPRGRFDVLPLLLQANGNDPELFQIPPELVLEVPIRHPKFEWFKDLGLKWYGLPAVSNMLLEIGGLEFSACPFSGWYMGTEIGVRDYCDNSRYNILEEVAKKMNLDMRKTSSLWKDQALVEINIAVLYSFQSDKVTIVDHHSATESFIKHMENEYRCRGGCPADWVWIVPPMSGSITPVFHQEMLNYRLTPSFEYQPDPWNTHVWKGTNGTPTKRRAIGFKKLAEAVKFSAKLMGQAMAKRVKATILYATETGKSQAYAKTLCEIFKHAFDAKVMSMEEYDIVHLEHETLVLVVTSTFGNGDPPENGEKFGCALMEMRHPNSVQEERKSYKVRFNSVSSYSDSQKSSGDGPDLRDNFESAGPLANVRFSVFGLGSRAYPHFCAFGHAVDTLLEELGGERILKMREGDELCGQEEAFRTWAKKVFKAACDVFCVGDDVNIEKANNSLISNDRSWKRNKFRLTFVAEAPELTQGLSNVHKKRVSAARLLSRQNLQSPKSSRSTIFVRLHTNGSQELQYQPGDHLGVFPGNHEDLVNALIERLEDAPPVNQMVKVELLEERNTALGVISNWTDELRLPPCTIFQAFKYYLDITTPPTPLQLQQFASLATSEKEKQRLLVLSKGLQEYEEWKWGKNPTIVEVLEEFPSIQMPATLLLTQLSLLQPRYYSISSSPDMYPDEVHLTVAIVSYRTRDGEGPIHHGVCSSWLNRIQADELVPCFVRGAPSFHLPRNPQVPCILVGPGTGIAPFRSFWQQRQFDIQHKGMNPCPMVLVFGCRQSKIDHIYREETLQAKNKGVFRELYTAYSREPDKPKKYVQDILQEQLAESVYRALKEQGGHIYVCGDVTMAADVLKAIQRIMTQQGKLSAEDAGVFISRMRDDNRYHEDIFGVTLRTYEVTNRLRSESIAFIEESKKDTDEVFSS
On to `c1cn(-c2ccc(Oc3nccc(Oc4ccc5c(c4)OCO5)n3)cc2)cn1`, for which the outcome was inactive.

The target in a further assay is T1, Nitric oxide synthase 3 (Homo sapiens) (UniProt P29474).
T1 sequence (whole entry): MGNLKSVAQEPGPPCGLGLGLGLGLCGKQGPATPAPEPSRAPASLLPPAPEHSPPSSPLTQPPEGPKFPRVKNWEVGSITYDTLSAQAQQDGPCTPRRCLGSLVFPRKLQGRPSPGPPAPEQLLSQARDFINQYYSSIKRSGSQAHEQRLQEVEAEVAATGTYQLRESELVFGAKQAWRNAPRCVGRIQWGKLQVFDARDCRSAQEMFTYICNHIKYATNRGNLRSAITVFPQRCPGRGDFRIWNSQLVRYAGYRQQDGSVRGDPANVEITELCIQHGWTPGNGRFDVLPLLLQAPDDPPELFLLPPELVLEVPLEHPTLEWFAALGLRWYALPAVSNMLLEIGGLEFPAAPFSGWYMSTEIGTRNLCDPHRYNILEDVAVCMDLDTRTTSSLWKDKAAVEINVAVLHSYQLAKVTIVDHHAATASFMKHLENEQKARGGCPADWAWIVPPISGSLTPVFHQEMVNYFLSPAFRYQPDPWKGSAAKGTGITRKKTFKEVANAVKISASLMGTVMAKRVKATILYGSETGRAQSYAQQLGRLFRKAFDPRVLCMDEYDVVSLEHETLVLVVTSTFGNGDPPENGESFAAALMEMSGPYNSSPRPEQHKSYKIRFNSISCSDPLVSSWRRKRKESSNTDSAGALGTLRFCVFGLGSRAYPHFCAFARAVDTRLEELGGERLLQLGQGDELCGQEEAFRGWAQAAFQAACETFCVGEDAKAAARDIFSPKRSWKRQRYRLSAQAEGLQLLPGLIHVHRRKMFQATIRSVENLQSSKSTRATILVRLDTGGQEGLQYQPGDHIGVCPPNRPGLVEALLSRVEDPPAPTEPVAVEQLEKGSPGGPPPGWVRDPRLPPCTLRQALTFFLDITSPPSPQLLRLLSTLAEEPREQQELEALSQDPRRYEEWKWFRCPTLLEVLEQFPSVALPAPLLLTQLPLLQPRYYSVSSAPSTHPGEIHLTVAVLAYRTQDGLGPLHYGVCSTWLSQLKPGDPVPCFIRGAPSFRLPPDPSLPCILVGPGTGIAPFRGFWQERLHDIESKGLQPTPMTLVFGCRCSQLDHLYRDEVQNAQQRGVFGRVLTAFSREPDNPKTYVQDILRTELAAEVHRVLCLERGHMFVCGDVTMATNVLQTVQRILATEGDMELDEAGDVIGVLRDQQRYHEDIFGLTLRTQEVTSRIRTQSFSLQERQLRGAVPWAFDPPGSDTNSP
Nature of the assay: Inhibition of eNOS.
Take `c1cn(-c2ccc(Oc3nccc(Oc4ccc5c(c4)OCO5)n3)cc2)cn1`: the outcome was inactive.
